US20240117305A1, “THREE-DIMENSIONAL PRINTABLE BIOCOMPATIBLE PHOTOPOLYMERIZABLE INK WITH SPATIALLY CONTROLLED DUAL PROTEIN MOTIFS FOR CO-CULTURE FUNCTIONALITY” (Rowan University, priority 2022, published 2024)
“Also recorded” adds a separate entry of the source.

What was measured:
[1] = system: hCMEC/D3 endothelial cells; experiment: Endothelial spreading and cell coverage in peptide-lined DLP-printed channels; assay type: cell-based; conditions: for Cell spreading and vessel coverage over time: 650 μm channels in photoink formulation no. 1, 5-day static culture, images on days 1, 3, 5; for Percent cell coverage within the vessel versus control / other motifs: 650 μm channels in photoink formulation no. 1, static culture, day 5, peptide clicked to channel wall; for Microenvironment for vessel coverage and development of barrier function: overall statement covering coverage and ZO-1 results in hCMEC/D3 endothelial cells
Experimental: Radicalized driven thiol-ene reaction schemes were utilized for functionalizing biomaterials. Several thiolated peptide cell binding motifs were functionalized to the walls of the printed geometry. Fluorescent labeled peptides were first synthesized via peptide synthesizer. […] Lyophilized RFP and GFP were both brought to room temperature and diluted to 10 mg/mL in 1×PBS. The bifurcation geometry print included RFP peptide in the bulk solution at 1:1000, while 300 μL of GFP was flowed into the channel at 10 μg/mL and hit with […] for 180 seconds. Process was repeated in the same manner for channel functionalization of the ‘RU’ geometry. Similarly, HAVDI(HAVDIGGGC), derived from N-Cadherein and RGD(GCGYGRGDSPG), derived from multiple ECM proteins, were synthesized and purchased from Genscript. IKVAV(GCGGGIKVAVG), a laminin derived motif, was fabricated using a peptide synthesizer. 5 mg/mL Irgacure 12959 was diluted to 0.5 mg/mL in PBS and thiolated peptide was added to a final concentration of 5 mM. 50 μL of peptide solution was injected into the channel and 10 mW/cm^2 was radiated onto surface of gel for 60 seconds. This process was repeated after inverting the gel to assure full coverage of the peptide onto the surface of the channel. Gels were then washed out 2× for 30 minutes in PBS to remove any unbound peptide.
(§1) P23 hCMEC/D3 endothelial cells (with and without transfection with RFP-LifeAct) were cultured until 90% confluent, trypsinized, and suspended at a concentration of 50M/mL for hydrogel cell seeding. Hydrogels were seeded with 22 μL of 12.5 M/mL and placed face up at the bottom of six well plate with 1 mL of EGM-2 incubated at 37° C./5% CO2. The cell seeding technique included 90° rotations every 30 minutes with additional seeding every hour for 4 hours. Following initial seeding, 8.8 μL of 12.5 M/mL HCMEC/D3 were injected into the bifurcation geometry for vessel coating. After 4 hours, hydrogels were kept in static culture for 4-5 days in EGM-2.
(§2) In order to quantify cell spreading, a z-projection was used with an arbitrary ROI to quantify the percentage of the area covered by cells. Three different ROI's were analyzed to provide an average and standard deviation. ZO-1 intensity was quantified in both static and perfused culture at different locations within the branched network. The image intensity along approximately 70-μm lines across the image plane were plotted to quantify ZO-1 localization to cell-cell junctions. […] ImageJ was used for all image processing and analysis.
Imaging was performed on a Nikon Eclipse Ti Confocal Microscope to assess cell spreading, morphology, and proliferation in 3D overtime within these microvessels. Images were taken on days 1, 3, and 5 following cell seeding.
(§3) A two-factor ANOVA was calculated to test for significance in the two variables of time and peptide coating in the cell spreading assay. In order to test for significance in the ZO-1 localization experiments, a one-factor ANOVA was calculated for each peptide condition tested.

[2] = system: ZO-1 localization in hCMEC/D3 cells; experiment: ZO-1 localization to cell-cell junctions (tight junction integrity) in peptide-lined vessels; assay type: cell-based; conditions: for ZO-1 staining localization to cell-cell junctions (images): photoink formulation no. 1, static conditions for five days; for Root mean square ZO-1 intensity quantification (barrier formation): photoink formulation no. 1, static culture day 5, p<0.05
Experimental: as §1
Vessels cultured in static conditions for four days were hooked up to pressure driven flow using an Arduino-controlled peristaltic pump. Gels were ported inside a perfusion chamber with 20-gauge PTFE catheter tips connected to luer locks with tygon tubing (McMaster Carr). Vessels were connected in parallel through a dampener with EGM-2 for 24 hours at a flow rate of ˜5 mL/min or 44.4 dyne/cm^2 shear stress in the branches and 1.68 dyne/cm^2 in the region adjacent to the bifurcation.
Following static and/or flow culture within the vessels, hydrogels were washed 3× in PBS and placed in 4% paraformaldehyde for 20 minutes. Gels were washed in PBS and a primary monoclonal antibody for zonula-occluden-1 (ZO-1) (Cell Signaling Technologies) was added at 1:250 in PBS and incubated at 4° C. for 48 hours. Gels were then washed for 10 minutes 3× in PBS on the rocker. Far red-labeled ZO-1 secondary antibody (Cell Signaling Technologies) was diluted 1:250 in PBS along with Hoesch at 2 ug/ml. Solution was added to the gels and incubated for 1 hour at 37° C. Gels were then washed and imaged on a Nikon Eclipse Ti Confocal microscope.
as §2, §3

Row | Sequence | Cell spreading and vessel coverage over time [1] | Percent cell coverage within the vessel versus control / other motifs [1] | Microenvironment for vessel coverage and development of barrier function [1] | ZO-1 staining localization to cell-cell junctions (images) [2] | Root mean square ZO-1 intensity quantification (barrier formation) [2] | Endothelial coverage of the branched (bifurcation) topology ([1]; bifurcation vessel, endothelial cells only, before seeding astrocytes) | ZO-1 localization in response to flow ([2]; network topology designed to induce flow separation, fully developed versus disturbed flow)
1 | GCGGGIKVAVG [thiolated laminin derived motif, covalently clicked to channel walls] | exhibited no noticeable difference in vessel coverage throughout the 5-day static culture | significantly improve endothelialization compared to other motifs; also recorded: significantly higher coverage than the control condition | provide the most favorable microenvironment for both vessel coverage and development of barrier function | increase zonula occulends-1 (“ZO-1”) localization to cell-cell junctions; also recorded: exhibited more ZO-1 localization to the cell-cell junctions | significantly higher barrier formation than the RGD and control-lined channels | – | –
2 | GCGYGRGDSPG [thiolated peptide motif derived from multiple ECM proteins, clicked to channel walls or in the bulk photoink] | exhibited immediate spreading on PEG-norbornene and progressed linearly overtime; also recorded: increased cell spreading | – | – | the ZO-1 was the most diffuse in this condition; also recorded: did not result in the highest ZO-1 localization to cell-cell junctions | – | full channel coverage was possible | no significant difference in ZO-1 localization in response to fully developed and disturbed flow
3 | HAVDIGGGC | over the course of the experiment cells began to spread and cover the walls; also recorded: took several days to spread and cover the vessel wall | significantly improve endothelialization compared to other motifs; also recorded: significantly higher coverage than the control condition | provide the most favorable microenvironment for both vessel coverage and development of barrier function | increase zonula occulends-1 (“ZO-1”) localization to cell-cell junctions; also recorded: ZO-1 junctional staining was the clearest; also recorded: induced the highest ZO-1 localization to the cell-cell junctions | significantly higher barrier formation than the RGD and control-lined channels | – | –
